Article PMC9500072, “Topical application of an irreversible small molecule inhibitor of lysyl oxidases ameliorates skin scarring and fibrosis” (Nature Communications, 2022)

How the values were obtained:
[1] = test system: lysyl oxidases; test: Time-dependency of inhibition (pre-incubation times); format: biochemical; design: Fig. 2B activity: scale not given here
Description: (§1) PXS-4787 competes with a model substrate (putrescine) for the LOX binding site (Fig. 2d). The allylamine of PXS-4787 interacts with the co-factor of the enzyme and elicits mechanism-based inhibition (Fig. 2e). Through careful optimization, and in contrast to BAPN, PXS-4787 selectivity targets lysyl oxidases and is neither an inhibitor of, nor a substrate for, related oxidases (Fig. 2f, g and Supplementary Table S1). Furthermore, PXS-4787 was clean when profiled in a broad panel of macromolecular targets using enzyme and radioligand binding assays (LeadProfilingScreen, Eurofins CEREP Panlabs, 68 assays, test concentration 10 µM; Supplementary Data S1).
Data are expressed as mean ± SEM. Subsequent statistical analysis was performed with unpaired two-sided Student’s t tests. *p < 0.05, **p < 0.01, ***p < 0.001and ****p < 0.0001. Source data are provided as a Source Data file.
The measurement of the enzymatic activity of all lysyl oxidase family members was based on the detection of hydrogen peroxide with an Amplex-Red oxidation assay, as previously described; miniaturized in 384 well formats, with the appropriate combination of substrate and assay buffer for each individual enzyme. After a 30 min pre-incubation of the enzyme at 37 °C with the test compound (or with different incubation times for the time-dependency assay), one volume of reaction mixture containing 120 μM Amplex Red (AR) (Life Technologies), 1.5 U/mL horseradish peroxidase (HRP) (Sigma-Aldrich) and the specific substrate was added to each sample. The relative fluorescence units (RFU) were then measured every 2.5 min for 30 min at 37 °C, excitation 565 nm and emission 590, on a BMG Clariostar Microplate Reader. All the substrates were used at concentrations corresponding to their Km towards the corresponding enzyme, or with a range of different concentrations for the substrate competition experiments.

[2] = biological target: Leukotriene, Cysteinyl CysLT1 (Homo sapiens, UniProt Q9Y271); test: Eurofins panel 250460; format: binding
[3] = biological target: Potassium Channel [KATP] (Cricetus cricetus, UniProt Q09427); test: Eurofins panel 265600; format: binding, ham
Description: as §1

Sequence of Leukotriene, Cysteinyl CysLT1 (Q9Y271 whole entry): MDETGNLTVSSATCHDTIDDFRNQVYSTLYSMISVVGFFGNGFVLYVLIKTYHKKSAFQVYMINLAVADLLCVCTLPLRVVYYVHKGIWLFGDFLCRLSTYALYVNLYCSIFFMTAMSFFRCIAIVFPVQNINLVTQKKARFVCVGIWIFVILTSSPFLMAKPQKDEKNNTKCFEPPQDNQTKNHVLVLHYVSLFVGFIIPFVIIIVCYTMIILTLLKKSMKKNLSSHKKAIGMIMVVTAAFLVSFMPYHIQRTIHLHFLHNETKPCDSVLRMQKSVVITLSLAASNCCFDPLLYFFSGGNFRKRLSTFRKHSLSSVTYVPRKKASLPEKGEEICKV
Sequence of Potassium Channel [KATP] (Q09427 whole entry): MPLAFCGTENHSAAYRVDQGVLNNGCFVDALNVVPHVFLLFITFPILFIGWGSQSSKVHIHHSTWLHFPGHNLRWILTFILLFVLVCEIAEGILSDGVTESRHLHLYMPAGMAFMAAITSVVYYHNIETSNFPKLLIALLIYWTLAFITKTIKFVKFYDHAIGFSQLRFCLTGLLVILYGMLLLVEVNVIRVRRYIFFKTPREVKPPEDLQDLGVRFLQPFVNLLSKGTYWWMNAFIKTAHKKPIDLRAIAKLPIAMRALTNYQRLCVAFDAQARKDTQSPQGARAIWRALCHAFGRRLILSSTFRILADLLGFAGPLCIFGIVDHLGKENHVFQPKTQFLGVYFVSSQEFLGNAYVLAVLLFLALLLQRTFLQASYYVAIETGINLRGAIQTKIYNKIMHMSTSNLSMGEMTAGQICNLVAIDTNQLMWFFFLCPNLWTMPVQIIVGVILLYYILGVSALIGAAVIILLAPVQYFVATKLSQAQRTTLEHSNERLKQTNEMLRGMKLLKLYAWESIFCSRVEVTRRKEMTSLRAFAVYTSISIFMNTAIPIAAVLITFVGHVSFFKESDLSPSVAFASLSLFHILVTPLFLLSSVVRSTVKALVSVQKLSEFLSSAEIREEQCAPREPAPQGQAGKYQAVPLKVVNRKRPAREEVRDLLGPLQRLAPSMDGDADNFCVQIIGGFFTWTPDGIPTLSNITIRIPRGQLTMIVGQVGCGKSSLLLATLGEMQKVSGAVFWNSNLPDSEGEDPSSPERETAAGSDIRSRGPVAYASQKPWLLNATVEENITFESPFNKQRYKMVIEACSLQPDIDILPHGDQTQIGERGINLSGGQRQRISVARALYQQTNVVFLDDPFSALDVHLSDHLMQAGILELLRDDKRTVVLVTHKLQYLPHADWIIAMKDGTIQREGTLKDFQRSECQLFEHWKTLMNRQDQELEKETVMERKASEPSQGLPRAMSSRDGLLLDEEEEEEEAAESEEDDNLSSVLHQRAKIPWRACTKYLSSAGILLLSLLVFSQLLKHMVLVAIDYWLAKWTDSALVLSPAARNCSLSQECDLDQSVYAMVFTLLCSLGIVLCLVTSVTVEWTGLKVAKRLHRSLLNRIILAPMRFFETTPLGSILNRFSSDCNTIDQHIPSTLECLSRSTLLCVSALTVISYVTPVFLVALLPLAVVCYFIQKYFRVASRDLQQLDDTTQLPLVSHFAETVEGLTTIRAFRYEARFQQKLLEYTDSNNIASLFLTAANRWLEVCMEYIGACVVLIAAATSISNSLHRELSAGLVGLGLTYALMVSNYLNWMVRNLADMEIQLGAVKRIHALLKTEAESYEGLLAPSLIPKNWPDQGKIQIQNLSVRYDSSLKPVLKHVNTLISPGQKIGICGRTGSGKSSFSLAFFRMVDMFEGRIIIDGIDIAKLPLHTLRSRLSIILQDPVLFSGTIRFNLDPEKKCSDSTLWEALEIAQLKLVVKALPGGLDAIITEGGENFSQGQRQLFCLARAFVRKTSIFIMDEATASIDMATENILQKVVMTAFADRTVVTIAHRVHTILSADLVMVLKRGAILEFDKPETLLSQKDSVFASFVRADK

Structure (SMILES): NC/C=C(\F)CS(=O)(=O)c1ccccc1 [PXS-4787]
- potency versus pre-incubation time [1]: increased potency upon longer pre-incubation times
- Fig. 2B activity ([1]; 1.69333e-10, pre-incubation 0 min): 106.286
- Fig. 2B activity ([1]; 1.69333e-10, pre-incubation 15 min): 104.086
- Fig. 2B activity ([1]; 1.69333e-10, pre-incubation 30 min): 108.652
- Fig. 2B activity ([1]; 1.69333e-10, pre-incubation 1 h): 105.245
- Fig. 2B activity ([1]; 1.69333e-10, pre-incubation 2 h): 105.759
- Fig. 2B activity ([1]; 1.69333e-10, pre-incubation 4 h): 111.637
- Fig. 2B activity ([1]; 5.08e-10, pre-incubation 0 min): 102.267
- Fig. 2B activity ([1]; 5.08e-10, pre-incubation 15 min): 101.228
- Fig. 2B activity ([1]; 5.08e-10, pre-incubation 30 min): 106.873
- Fig. 2B activity ([1]; 5.08e-10, pre-incubation 1 h): 98.3282
- Fig. 2B activity ([1]; 5.08e-10, pre-incubation 2 h): 107.568
- Fig. 2B activity ([1]; 5.08e-10, pre-incubation 4 h): 110.707
- Fig. 2B activity ([1]; 1.52e-9, pre-incubation 0 min): 101.124
- Fig. 2B activity ([1]; 1.52e-9, pre-incubation 15 min): 102.218
- Fig. 2B activity ([1]; 1.52e-9, pre-incubation 30 min): 107.03
- Fig. 2B activity ([1]; 1.52e-9, pre-incubation 1 h): 103.614
- Fig. 2B activity ([1]; 1.52e-9, pre-incubation 2 h): 102.685
- Fig. 2B activity ([1]; 1.52e-9, pre-incubation 4 h): 110.751
- Fig. 2B activity ([1]; 4.57e-9, pre-incubation 0 min): 99.5583
- Fig. 2B activity ([1]; 4.57e-9, pre-incubation 15 min): 100.144
- Fig. 2B activity ([1]; 4.57e-9, pre-incubation 30 min): 103.756
- Fig. 2B activity ([1]; 4.57e-9, pre-incubation 1 h): 101.013
- Fig. 2B activity ([1]; 4.57e-9, pre-incubation 2 h): 107.904
- Fig. 2B activity ([1]; 4.57e-9, pre-incubation 4 h): 105.302
- Fig. 2B activity ([1]; 1.37e-8, pre-incubation 0 min): 96.8423
- Fig. 2B activity ([1]; 1.37e-8, pre-incubation 15 min): 98.2429
- Fig. 2B activity ([1]; 1.37e-8, pre-incubation 30 min): 101.141
- Fig. 2B activity ([1]; 1.37e-8, pre-incubation 1 h): 101.758
- Fig. 2B activity ([1]; 1.37e-8, pre-incubation 2 h): 104.569
- Fig. 2B activity ([1]; 1.37e-8, pre-incubation 4 h): 105.34
- Fig. 2B activity ([1]; 4.12e-8, pre-incubation 0 min): 98.5025
- Fig. 2B activity ([1]; 4.12e-8, pre-incubation 15 min): 98.7481
- Fig. 2B activity ([1]; 4.12e-8, pre-incubation 30 min): 99.9026
- Fig. 2B activity ([1]; 4.12e-8, pre-incubation 1 h): 99.6216
- Fig. 2B activity ([1]; 4.12e-8, pre-incubation 2 h): 100.024
- Fig. 2B activity ([1]; 4.12e-8, pre-incubation 4 h): 98.7222
- Fig. 2B activity ([1]; 1.23e-7, pre-incubation 0 min): 98.6918
- Fig. 2B activity ([1]; 1.23e-7, pre-incubation 15 min): 98.1432
- Fig. 2B activity ([1]; 1.23e-7, pre-incubation 30 min): 101.367
- Fig. 2B activity ([1]; 1.23e-7, pre-incubation 1 h): 90.8141
- Fig. 2B activity ([1]; 1.23e-7, pre-incubation 2 h): 90.2595
- Fig. 2B activity ([1]; 1.23e-7, pre-incubation 4 h): 86.2099
- Fig. 2B activity ([1]; 3.7e-7, pre-incubation 0 min): 96.5147
- Fig. 2B activity ([1]; 3.7e-7, pre-incubation 15 min): 94.9326
- Fig. 2B activity ([1]; 3.7e-7, pre-incubation 30 min): 97.5329
- Fig. 2B activity ([1]; 3.7e-7, pre-incubation 1 h): 85.2822
- Fig. 2B activity ([1]; 3.7e-7, pre-incubation 2 h): 74.251
- Fig. 2B activity ([1]; 3.7e-7, pre-incubation 4 h): 62.6684
- Fig. 2B activity ([1]; 1.11e-6, pre-incubation 0 min): 94.3157
- Fig. 2B activity ([1]; 1.11e-6, pre-incubation 15 min): 89.9671
- Fig. 2B activity ([1]; 1.11e-6, pre-incubation 30 min): 87.3566
- Fig. 2B activity ([1]; 1.11e-6, pre-incubation 1 h): 64.8977
- Fig. 2B activity ([1]; 1.11e-6, pre-incubation 2 h): 45.9612
- Fig. 2B activity ([1]; 1.11e-6, pre-incubation 4 h): 15.2083
- Fig. 2B activity ([1]; 3.33e-6, pre-incubation 0 min): 92.0439
- Fig. 2B activity ([1]; 3.33e-6, pre-incubation 15 min): 82.8346
- Fig. 2B activity ([1]; 3.33e-6, pre-incubation 30 min): 63.1887
- Fig. 2B activity ([1]; 3.33e-6, pre-incubation 1 h): 32.0154
- Fig. 2B activity ([1]; 3.33e-6, pre-incubation 2 h): 13.0848
- Fig. 2B activity ([1]; 3.33e-6, pre-incubation 4 h): 1.062
- inhibition of the least sensitive lysyl oxidase ([1]; 10 µM, after 2 h): complete inhibition
- Fig. 2B activity ([1]; 1e-5, pre-incubation 0 min): 71.7944
- Fig. 2B activity ([1]; 1e-5, pre-incubation 15 min): 51.1738
- Fig. 2B activity ([1]; 1e-5, pre-incubation 30 min): 24.7148
- Fig. 2B activity ([1]; 1e-5, pre-incubation 1 h): 3.779
- Fig. 2B activity ([1]; 1e-5, pre-incubation 2 h): 2.199
- Fig. 2B activity ([1]; 1e-5, pre-incubation 4 h): 0.1194
- Fig. 2B activity ([1]; 3e-5, pre-incubation 0 min): 46.8993
- Fig. 2B activity ([1]; 3e-5, pre-incubation 15 min): 20.2974
- Fig. 2B activity ([1]; 3e-5, pre-incubation 30 min): 5.217
- Fig. 2B activity ([1]; 3e-5, pre-incubation 1 h): 1.087
- Fig. 2B activity ([1]; 3e-5, pre-incubation 2 h): 2.027
- Fig. 2B activity ([1]; 3e-5, pre-incubation 4 h): -1.502
- inhibition at 10 µM [2]: -3%
- inhibition at 10 µM [3]: 0%
